pIC50, pKi: −log10 of the molar value.
The compounds below were run against Muscarinic acetylcholine receptor M3 (Homo sapiens, UniProt P20309) (assay: The assay is carried out in 96-well polypropylene plates in a volume of 250 μl. […] The final assay concentration of DMSO is 0.5% (v/v). The plates are sealed and incubated for 2 h at room temperature on an orbital shaker (slow speed). Membranes are harvested onto 96-well unifilter GF/C filter plates pre-treated with 0.5% polyethyleneimine (v/v), using a filter manifold, washed four times with 200 μl of assay buffer. The plates are dried before addition of 50 μl of microscint-0, sealed then read in a Trilux Microbeta scintillation counter. IC50 values are determined from competition curves using a non-linear curve fitting program. Ki values are calculated from IC50 values by the Cheng and Prusoff equation.).
Chain of Muscarinic acetylcholine receptor M3 (P20309 whole entry): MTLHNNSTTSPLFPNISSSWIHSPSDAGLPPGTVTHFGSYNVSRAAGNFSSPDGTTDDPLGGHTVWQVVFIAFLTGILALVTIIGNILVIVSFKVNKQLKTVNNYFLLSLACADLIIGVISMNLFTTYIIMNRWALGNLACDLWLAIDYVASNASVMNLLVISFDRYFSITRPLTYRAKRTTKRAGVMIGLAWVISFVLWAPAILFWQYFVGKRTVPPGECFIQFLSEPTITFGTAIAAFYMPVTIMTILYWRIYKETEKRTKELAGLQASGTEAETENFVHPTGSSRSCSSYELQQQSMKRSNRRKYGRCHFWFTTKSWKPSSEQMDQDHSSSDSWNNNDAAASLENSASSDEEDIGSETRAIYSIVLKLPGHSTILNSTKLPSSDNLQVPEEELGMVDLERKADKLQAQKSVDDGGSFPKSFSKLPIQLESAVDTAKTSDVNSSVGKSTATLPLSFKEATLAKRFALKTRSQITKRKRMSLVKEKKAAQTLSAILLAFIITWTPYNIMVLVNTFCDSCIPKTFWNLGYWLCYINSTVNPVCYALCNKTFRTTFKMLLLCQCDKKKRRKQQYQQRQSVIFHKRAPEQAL
Compound `COc1ccc([C@H](Cc2c(Cl)c[n+]([O-])cc2Cl)OC(=O)c2ccc(CNC(C(=O)OC[C@H]3CCN(C)C3)c3ccccc3)s2)cc1OC` (stereo partly specified) has a pKi of 9.23. For `COc1ccc([C@H](Cc2c(Cl)c[n+]([O-])cc2Cl)OC(=O)c2ccc(CNC(CO)(C(=O)OC[C@H]3CCN(C)C3)c3ccccc3)s2)cc1OC` (stereo partly specified), the pIC50 was > 9.00. `COc1ccc([C@H](Cc2c(Cl)c[n+]([O-])cc2Cl)OC(=O)c2ccc(CNC(CO)(C(=O)OC[C@@H]3CCN(C)C3)c3ccccc3)s2)cc1OC` (stereo partly specified) was tested, and the pIC50 was > 9.00.

The compounds below were run against 3',5'-cyclic-AMP phosphodiesterase 4B (Homo sapiens, UniProt Q07343) (assay: HTRF Assay: PDE4B2 activity is detected using the LANCE Ultra cAMP homogeneous time resolved fluorescence resonance energy transfer (TR-FRET) assay from Perkin Elmer. The assay is based on the competition between the europium (Eu) chelate-labeled cAMP tracer and sample cAMP for binding sites on cAMP-specific monoclonal antibodies (mAb) labelled with the ULight¿ dye. The assay is carried out in 384-well low volume plates in a volume of 10 μl. Human recombinant PDE4B2 (80 pM) is incubated for 2 h with 3 nM cAMP in buffer containing 1×HBSS, 5 mM HEPES, 3 mM MgCl2, 0.1% BSA, pH 7.4 with or without test compounds. The enzymatic reactions are efficiently stopped by the addition of 500 μM IBMX present in the combined Stop/Detection buffer containing europium (Eu) chelate-labeled cAMP tracer and cAMP-specific monoclonal antibodies (mAb) labelled with the ULight¿ dye. […] IC50 values are determined from competition curves using a non-linear curve fitting program.).
Chain of 3',5'-cyclic-AMP phosphodiesterase 4B (Q07343 whole entry): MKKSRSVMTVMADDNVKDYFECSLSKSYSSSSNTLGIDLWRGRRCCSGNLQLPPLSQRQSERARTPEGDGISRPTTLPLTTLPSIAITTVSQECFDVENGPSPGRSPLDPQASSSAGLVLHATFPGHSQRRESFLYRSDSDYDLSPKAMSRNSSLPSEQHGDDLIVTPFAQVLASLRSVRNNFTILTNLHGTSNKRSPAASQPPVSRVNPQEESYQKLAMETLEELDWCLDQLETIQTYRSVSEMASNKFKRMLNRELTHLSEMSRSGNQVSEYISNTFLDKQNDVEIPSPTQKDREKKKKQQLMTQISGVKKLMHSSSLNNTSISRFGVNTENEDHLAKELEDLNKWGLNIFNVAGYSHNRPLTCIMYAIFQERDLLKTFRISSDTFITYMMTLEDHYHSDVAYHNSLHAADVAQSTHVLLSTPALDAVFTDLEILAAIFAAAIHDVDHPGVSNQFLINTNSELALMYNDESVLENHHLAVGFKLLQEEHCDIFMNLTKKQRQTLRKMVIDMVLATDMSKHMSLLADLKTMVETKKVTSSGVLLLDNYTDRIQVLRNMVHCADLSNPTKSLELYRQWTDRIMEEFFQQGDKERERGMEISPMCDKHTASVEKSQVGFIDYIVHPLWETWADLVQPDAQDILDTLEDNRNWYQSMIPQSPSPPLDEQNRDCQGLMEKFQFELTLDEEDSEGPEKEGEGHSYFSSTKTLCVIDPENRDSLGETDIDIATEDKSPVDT
In the case of `COc1ccc([C@H](Cc2c(Cl)c[n+]([O-])cc2Cl)OC(=O)c2ccc(CNC(C(=O)OC[C@H]3CCCCN3C)c3ccccc3)s2)cc1OC` (stereo partly specified), the pIC50 was > 9.00. With `COc1ccc([C@H](Cc2c(Cl)c[n+]([O-])cc2Cl)OC(=O)c2ccc(CNC(C(=O)OCC3CCN(C)CC3)c3cccc(O)c3)s2)cc1OC` (stereo partly specified) the pIC50 was > 9.00. In the case of `COc1ccc([C@H](Cc2c(Cl)c[n+]([O-])cc2Cl)OC(=O)c2ccc(CNC(C(=O)OC[C@H]3CCCN(C)C3)c3ccccc3)s2)cc1OC` (stereo partly specified), the pIC50 was > 9.00. In the case of `COc1ccc([C@H](Cc2c(Cl)c[n+]([O-])cc2Cl)OC(=O)c2ccc(CNC(CO)(C(=O)OC[C@H]3CCN(C)C3)c3ccccc3)s2)cc1OC` (stereo partly specified), the pIC50 was > 9.00. In the case of `COc1ccc([C@H](Cc2c(Cl)c[n+]([O-])cc2Cl)OC(=O)c2ccc(CNC(C(=O)OCC3CCN(C)CC3)c3ccccc3F)s2)cc1OC` (stereo partly specified), the pIC50 was > 9.00. In the case of `CCOc1cc(C(Cc2c(Cl)c[n+]([O-])cc2Cl)OC(=O)c2ccc(CNC(C(=O)OCC3CCN(C)CC3)c3ccccc3)s2)ccc1OC` (stereo unspecified), the pIC50 was > 9.00. In the case of `COc1ccc([C@H](Cc2c(Cl)c[n+]([O-])cc2Cl)OC(=O)c2ccc(CNC(C)(C(=O)OCC3CCN(C)CC3)c3ccccc3)s2)cc1OC` (stereo partly specified), the pIC50 was > 9.00. `COc1ccc(C(Cc2c(Cl)c[n+]([O-])cc2Cl)OC(=O)c2ccc(CNC(C(=O)OCC3CCN(C)CC3)c3ccccc3)s2)cc1OCC1CC1` (stereo unspecified) was tested, and the pIC50 was > 9.00.

From ChEMBL document CHEMBL5726224, “Aminoester derivatives” (2017)
